Data on eleven compounds can be found in patent publication US5482930A, “Anti-inflammatory composition and method with des-Tyr dynorphin and analogues” (The Regents of the University of California, priority 1993, dated 1996).

Counter-ions that a name gives are not always drawn. Residues, ends and D or L forms follow the SMILES beside them.

Data set [1] relates to thermal edema of the hind paw. Briefly: Heat-induced swelling and edema of the rat hind paw (58° C. water, one minute). It is filed as in vivo. Conditions: for anti-inflammatory effect (FIG. 1): FIG. 1 legend; for ED50, reducing thermal edema: i.v., anesthetized rat, hind paw 58° C. water one minute. How it is done: In one bioassay, dynorphin A (2-17), synthesized by standard solid phase methods, was dissolved in sterile saline and injected intravenously via a branch of the femoral vein at various doses into an anesthetized rat. Ten minutes later a hind paw was immersed in 58° C. water for one minute. Thirty minutes after exposure to heat, the paw was removed at the ankle joint and weighed. The percent increase in weight of the heated paw relative to the unheated paw was taken as the index of inflammatory thermal edema. The general principles of this method have been discussed by Wei and Thomas, Ann. Rev. of Pharmacol. and Toxicol., 33, pp. 91-108 (1993).
Anesthetized rats were injected intravenously (i.v.) with saline (1 ml/kg) or naloxone hydrochloride ([…]) 5 minutes prior to i.v. injection with saline ([…]), dynorphin A (2-17) (0.5 mg/kg), or N-acetyldynorphin A (6-12 )-amide (3 mg/kg). Ten minutes after the second injection, the rat's hind paw was immersed in 58° C. water for one minute and 30 minutes later the animals were euthanized and the heated and unheated paw weights were measured. After saline/saline or naloxone HCl/saline, the percent increase in the weight of the heated paw, relative to the unheated paw, were 104±10% and 98±9%, respectively. The percent increases for the saline/dynorphin A (2-17) and naloxone HCl/dynorphin A (2-17) groups were 26±6% and 26±5%, respectively. The percent increases for the saline/N-acetyl-dynorphin A (6-12) amide and naloxone HCl/N-acetyl-dynorphin A (6-12) amide groups were 21±3% and 27±12%, respectively.

In a further data set the test system is neurogenic inflammation. Conditions: intravenous route; relative to saline-injected controls; cited from earlier work.
Data set [2] concerns edema in the anesthetized rat's paw after thermal injury. Conditions: 3.75 mg/kg administered intravenously; cited from earlier work.
Data set [3] is described as follows: Direct comparison of dynorphin A analogs with an amide or a carboxyl C-terminus (ED50, bioassay not given). The class given is in vivo. Conditions: i.v.; amide versus carboxyl C-terminus. How it is done:
Similar results were obtained for D-Ala^2 -dynorphin A (1-17) amide, with an ED50 value of 0.5 mg/kg i.v. versus a value of 1.0 mg/kg i.v. for D-Ala^2 -dynorphin A (1-17).

The nature of data set [4]: Blood pressure and oxygenation after i.v. dose. It is filed as in vivo, rat. The note with it: 0.2 mg/kg i.v.

One may read the ED50 as the midpoint of the dose-response relation. High values mean weaker potency, low ones greater potency.

Consider dynorphin A (1-13), for which, in data set [1], the “anti-inflammatory effect (FIG. 1)” value was “substantially lacking potency” and the “ED50, reducing thermal edema” value is recorded as 3.2 (1.9-5.5) mg/kg. Moreover, the “median effective dose (ED50) producing 50% inhibition of dye leakage” value with neurogenic inflammation is given as 1.9 (1.5-2.4) mg/kg. Besides, in data set [2], the “prevention of edema after thermal injury” value is “prevent edema”. In data set [3], D-Ala^2 -dynorphin A (2-17) amide displayed an ED50 of 0.65 mg/kg. In the case of `CC[C@H](C)[C@H](NC(=O)[C@H](CCCNC(=N)N)NC(=O)[C@H](CCCNC(=N)N)NC(=O)[C@H](CC(C)C)NC(=O)[C@H](Cc1ccccc1)NC(=O)CNC(=O)CN)C(=O)N[C@@H](CCCNC(=N)N)C(=O)N1CCC[C@H]1C(=O)N[C@@H](CCCCN)C(=O)N[C@@H](CC(C)C)C(=O)N[C@@H](CCCCN)C(=O)N[C@@H](Cc1c[nH]c2ccccc12)C(=O)N[C@@H](CC(=O)O)C(=O)N[C@@H](CC(N)=O)C(=O)N[C@@H](CCC(N)=O)C(=O)O` [Embodiment NO:1, G-G-F-L-R-R-I-R-P-K-L-K-W-D-N-Q], in data set [4], the cyanosis / oxygenation entry is on record as “no evidence of cyanosis” and the “effect on blood pressure” value was “slight fall in blood pressure”. Also, in data set [4] (then mean arterial pressure returned to baseline), the “duration of fall in blood pressure” value lay within 10 to 15 min. With dynorphin A (1-17), in data set [1], the “anti-inflammatory effect (FIG. 1)” value is on record as “substantially lacking potency” and the “ED50, reducing thermal edema” value was 1.7 (1.2-2.4) mg/kg. As to D-Ala^2 -dynorphin A (2-17), the median effective dose (ED50) in data set [3] is given as 1.2 mg/kg.

For the compound `CC[C@H](C)[C@H](NC(=O)[C@H](CCCNC(=N)N)NC(=O)[C@H](CCCNC(=N)N)NC(C)=O)C(=O)N[C@@H](CCCNC(=N)N)C(=O)N1CCC[C@H]1C(=O)N[C@@H](CCCCN)C(=O)N[C@H](CC(C)C)C(N)=O` [Embodiment NO:4, Ac-R-R-I-R-P-K-l-NH2] (HELM PEPTIDE1{[ac].R.R.I.R.P.K.[dL].[am]}$$$$V2.0), the “ED50, reducing thermal edema” value in data set [1] is 2.2 (1.2-4.1) mg/kg. Consider dynorphin A (1-10) amide, for which the “median effective dose (ED50) producing 50% inhibition of dye leakage” value with neurogenic inflammation is recorded as 5.0 (3.5-7.2) mg/kg.

`C=CCN1CC[C@]23c4c5ccc(O)c4O[C@H]2C(=O)CC[C@@]3(O)[C@H]1C5` [naloxone HCl, naloxone hydrochloride]: in data set [1] (naloxone HCl (4 ml/kg) i.v. then saline, no peptide), the “percent increase in the weight of the heated paw, relative to the unheated paw” value is 98±9%. Turning to “Ac-RRIRPKL-NH2 [Embodiment NO:3, Ac-R-R-I-R-P-K-L-NH2]”, the “ED50, reducing thermal edema” value in data set [1] is given as 1.4 (0.6-3.7) mg/kg. Also, the “percent increase in the weight of the heated paw, relative to the unheated paw” value in data set [1] (naloxone HCl pretreatment, then peptide 3 mg/kg i.v.) turned out to be 27±12%; in data set [1] (saline pretreatment, then peptide 3 mg/kg i.v.) it was 21±3%. Also, the “antagonism of anti-inflammatory effect by naloxone” value in data set [1] (peptide 3 mg/kg i.v., naloxone 4 mg/kg i.v.) is on record as “not antagonized”.

Consider D-Ala^2 -dynorphin A (1-17), for which, in data set [3], the median effective dose (ED50) worked out at 1.0 mg/kg. Same read-out and setting: under D-Ala^2 -dynorphin A (1-17) amide stands 0.5 mg/kg.
